Results from patent US9359405B2, “Antagonists of the interleukin-1 receptor” (Phlogo ApS, priority 2011, dated 2016).
No end group written: not given here.

Experiments:
[1] = tested on: IL1β-activated AMJ2-C8 macrophage cells; test: TNFα secretion by IL1β-activated macrophages (L929/MTS bioassay); format: cell-based; details: IL1β 1.2 μM
Protocol: The Ilantafin peptide or IL1Ra or IL1RI was added to cultures of macrophages (AMJ2-C8) seeded in 6-well multi-dishes (Nunc) (2.5×10^5 cells/well). After 24 h of incubation at 37° C., IL1β (1.2 μM) was added to the cultures to activate the macrophages. L929 cells were seeded in a 96-well plate at a density of 2×10^5 cells/mL. Both cell cultures were incubated for 24 h at 37° C. Conditioned medium from the macrophage cultures was collected and added to the fibroblast cultures together with 0.6 μg/well actinomycin. D (Sigma-Aldrich). Finally, after 24 h of incubation at 37° C., 20 μl of 3-(4,5-dimethylthiazol-2-yl)-5-(3-carboxymethoxyphenyl)-2-(4-sulfophenyl)-2H-tetrazolium (MTS) (Promega, Madison, Wis., USA) was added to each well and the plates were incubated protected from light, at 37° C., for ˜45 min and the optical density was measured at 490 nm in a Sunrise absorbance reader (Tecan, Männedorf, Switzerland). In order to calculate the amount of TNF-α in the conditioned medium, a standard curve was obtained by treating fibroblasts with different concentrations of TNF-α (R&D systems, Minneapolis, Minn., USA).

[2] = tested on: NF-κB activated by IL1β (IL1RI signaling), HEK-Blue IL1β cells; test: IL1RI signaling assay, HEK-Blue IL1β reporter cells (NF-κB/SEAP); format: cell-based; details: IL1β 1.2 μM
Excerpt: (§1) IL1RI signaling assay: Commercially available Blue™ Cytokine Reporter Cell technology from InvivoGen (Denmark distributor: Sigma-Aldrich Denmark) was used. It is represented by an expanding family of engineered cell lines designed to provide a simple, rapid, and reliable method of monitoring the activation of signaling pathways induced by key cytokines. HEK-Blue™ IL1β cells are specifically engineered to selectively respond to IL1β, and they feature the secreted embryonic alkaline phosphatase (SEAP) reporter gene under the control of an NF-κB-inducible promoter. […] A target/receptor-specificity of the Ilantafin effect was verified employing HEK-Blue™ IL6 cells.

[3] = tested on: collagen-induced arthritis (CIA); test: Collagen-induced arthritis in rats, treatment dpi 8-15 (Example 14); format: in vivo, rat; details: 10.0 mg/kg s.c. daily dpi 8-15
Protocol: Induction of CIA. The CIA study was performed on a total of 40 male Wistar rats with an average weight of 150 g at the beginning of the experiment. CIA was induced by subcutaneous (s.c.) injection of bovine collagen type II (CII, Sigma-Aldrich) solubilised in 0.05 M acetic acid (2 mg/ml), and then emulsified 1:1 with CFA (Sigma-Aldrich) containing […] heat-inactivated M. tuberculosis. Under inhalation anaesthesia (Isofluran, 3%) 250 μl of the emulsion containing 250 μg of CII and […] was injected (s.c.) at the tail base (post-immunization day, dpi 0).
Treatment design. At dpi 8, before onset of clinical signs, all animals were randomly divided into two groups, 20 rats per group, and were dosed daily during 8 days (dpi 8-15) with Ilantafin (10.0 mg/kg, s.c.) or vehicle (PBS, 1.0 ml/kg, s.c.). […]
Clinical scores. An observer blinded to treatment groups evaluated the severity of arthritis employing the following grading system: O— no redness or swelling in foot; 1—slight redness in foot or redness and swelling in single interfalangeal joints; 2—moderate swelling and redness in ankle and metatarsal part of foot; 3—marked swelling and redness of entire foot, restricted usage of foot in locomotion; 4—marked swelling and redness of entire foot, impossibility of usage foot in locomotion and rearing. […]

[4] = tested on: STAT signalling induced by IL6, HEK-Blue IL6 cells; test: Target specificity, HEK-Blue IL6 cells; format: cell-based
Excerpt: as §1

IL1RI = molecular target: T1, IL1RI (Homo sapiens, UniProt P14778); test: Kb (s^-1)
T1 construct: The recombinant protein comprising the whole extracellular part of IIL1RI was immobilised on the surface of a CM5 sensor chip
Excerpt: Table printed on a drawing sheet, Figure 3
Head of the field: Kb (s^-1)
First copying reader's note: Rate and affinity constants for binding to IL1RI; each cell holds the value with its ± error, and Ilantafin is a peptide while ILRa and IL1β are proteins.

[5] = tested on: collagen-induced arthritis (CIA); test: Collagen-induced arthritis in rats, treatment from day 15 (Example 7); format: in vivo, rat; details: 3.3 and 10 mg/kg s.c. daily from day 15
Excerpt: Rheumatoid arthritis is a chronic, inflammatory, systemic autoimmune disease that affects about 1% of the general population in Western countries. Collagen-induced arthritis (CIA) in rats is a widely employed animal model for the screening of anti-inflammatory compounds. Collagen bovine, type II (CII, Cat.no.20021, Lot 090209, Chondrex, USA), Complete Freund's Adjuvant, containing 0.1% of Mycobacterium tuberculosis (CFA, Cat.no. F5581, Lot 049K8700, Sigma-Aldrich), Incomplete Freund's Adjuvant (IFA, Cat.no. F5506, Lot 058K8702, Sigma). PBS (Panum Institute, Copenhagen University). Isofluran (Baxter). Animals were immunized twice: on day 0 (CII+CFA) and on day 10 (CII+IFA, booster). On day 15 the mean clinical score reached a value of 5.0 and all animals were divided into 3 groups so that the severity of disease (mean clinical score) in all groups was almost equal. The peptide (two doses, 3.3 and 10 mg/kg) was administered subcutaneously daily starting at day 15. The clinical evaluation of the arthritis severity was assessed using the following grading system: O— no redness or swelling in foot and palm; 1—slight swelling or redness in metatarsophalangeal joint and ankle joint foot or palm; 2—progressed swelling/inflammation and redness from ankle to mid foot or in entire palm; 3—swelling/inflammation of entire foot except toes; 4—swelling and inflammation of entire foot including toes.

T1 sequence (P14778 18-336): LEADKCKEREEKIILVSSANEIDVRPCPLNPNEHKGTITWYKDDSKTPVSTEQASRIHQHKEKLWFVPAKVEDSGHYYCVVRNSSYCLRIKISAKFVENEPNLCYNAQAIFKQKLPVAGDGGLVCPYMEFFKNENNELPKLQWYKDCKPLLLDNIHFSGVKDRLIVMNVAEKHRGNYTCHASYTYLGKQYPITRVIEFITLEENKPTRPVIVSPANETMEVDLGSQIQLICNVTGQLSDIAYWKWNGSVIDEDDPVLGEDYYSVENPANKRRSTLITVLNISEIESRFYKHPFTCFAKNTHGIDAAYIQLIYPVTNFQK

Sequence: SGRKSSKMQA [Ilantafin]
- inhibition of TNFα secretion by IL1β-activated macrophages [1]: in a dose dependent manner inhibits the IL1β-induced activation of macrophages
- inhibition of NF-κB activation induced by IL1β [2]: inhibits activation of macrophages
- morbidity (percentage of animals reached clinical index 7) [3]: significantly reduced morbidity by dpi 12
- severity of CIA (clinical score) [3]: attenuated severity of CIA on dpi 13-15
- effect on STAT signalling induced by IL6 [4]: does not inhibit signaling induced by IL6
- koff (IL1RI): 0.000753 s⁻¹
- clinical manifestations (clinical score) of CIA [5]: abrogates an increase in clinical manifestations of CIA in rats
